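How tested: cells in 96-well plates exposed to compound for 48 hours at five concentrations. At the GI50, growth is halved. TGI: total growth inhibition.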
Experiments:
Experiment in all cases: growth of human tumour cells (NCI), 48 h
KM12 colon = system: KM12 colon
A549 NSCLC = system: A549 NSCLC
SK-MEL-5 melanoma = system: SK-MEL-5 melanoma
EKVX NSCLC = system: EKVX NSCLC
SN12C renal = system: SN12C renal
SF-295 CNS = system: SF-295 CNS
MALME-3M melanoma = system: MALME-3M melanoma
RXF 393 renal = system: RXF 393 renal
HT29 colon = system: HT29 colon
SW-620 colon = system: SW-620 colon
SK-MEL-28 melanoma = system: SK-MEL-28 melanoma
NCI-H522 lung = system: NCI-H522 lung
HOP-92 NSCLC = system: HOP-92 NSCLC
NCI-H460 lung = system: NCI-H460 lung
HL-60(TB) leukemia = system: HL-60(TB) leukemia
HCT-15 colon = system: HCT-15 colon
UACC-62 melanoma = system: UACC-62 melanoma
CCRF-CEM leukemia = system: CCRF-CEM leukemia
HS 578T breast = system: HS 578T breast
NCI/ADR-RES ovarian = system: NCI/ADR-RES ovarian
SF-539 CNS = system: SF-539 CNS
DU-145 prostate = system: DU-145 prostate
LOX IMVI melanoma = system: LOX IMVI melanoma
OVCAR-8 ovarian = system: OVCAR-8 ovarian
U251 CNS = system: U251 CNS
HCC-2998 colon = system: HCC-2998 colon
PC-3 prostate = system: PC-3 prostate
SF-268 CNS = system: SF-268 CNS
NCI-H23 lung = system: NCI-H23 lung
OVCAR-5 ovarian = system: OVCAR-5 ovarian
UO-31 renal = system: UO-31 renal
MCF7 breast = system: MCF7 breast
A498 renal = system: A498 renal
SK-OV-3 ovarian = system: SK-OV-3 ovarian
T-47D breast = system: T-47D breast
MDA-MB-231 breast = system: MDA-MB-231 breast
TK-10 renal = system: TK-10 renal
COLO 205 colon = system: COLO 205 colon
HCT-116 colon = system: HCT-116 colon
HOP-62 NSCLC = system: HOP-62 NSCLC
786-0 renal = system: 786-0 renal
SNB-19 CNS = system: SNB-19 CNS
M14 melanoma = system: M14 melanoma
UACC-257 melanoma = system: UACC-257 melanoma
IGROV1 ovarian = system: IGROV1 ovarian
OVCAR-3 ovarian = system: OVCAR-3 ovarian
NCI-H226 lung = system: NCI-H226 lung
SNB-75 CNS = system: SNB-75 CNS
MDA-MB-435 = system: MDA-MB-435
OVCAR-4 ovarian = system: OVCAR-4 ovarian
K-562 leukemia = system: K-562 leukemia
RPMI-8226 leukemia = system: RPMI-8226 leukemia
ACHN renal = system: ACHN renal
MOLT-4 leukemia = system: MOLT-4 leukemia
SR leukemia = system: SR leukemia
CAKI-1 renal = system: CAKI-1 renal

SMILES: C=C(C)[C@@H]1CC[C@]2(C(=O)n3ccnc3)CC[C@]3(C)[C@H](CC[C@@H]4[C@@]5(C)CCCNC(C)(C)[C@@H]5CC[C@]43C)[C@@H]12
- GI50 (KM12 colon): 1.68 µM
- TGI (KM12 colon): 3.11 µM
- GI50 (A549 NSCLC): 1.94 µM
- TGI (A549 NSCLC): 3.62 µM
- GI50 (SK-MEL-5 melanoma): 1.56 µM
- TGI (SK-MEL-5 melanoma): 2.9 µM
- GI50 (EKVX NSCLC): 1.74 µM
- TGI (EKVX NSCLC): 4.1 µM
- GI50 (SN12C renal): 1.7 µM
- TGI (SN12C renal): 3.24 µM
- GI50 (SF-295 CNS): 1.69 µM
- TGI (SF-295 CNS): 3.24 µM
- GI50 (MALME-3M melanoma): 1.31 µM
- TGI (MALME-3M melanoma): 2.86 µM
- GI50 (RXF 393 renal): 1.5 µM
- TGI (RXF 393 renal): 2.92 µM
- GI50 (HT29 colon): 0.785 µM
- TGI (HT29 colon): 2.17 µM
- GI50 (SW-620 colon): 1.68 µM
- TGI (SW-620 colon): 3.39 µM
- GI50 (SK-MEL-28 melanoma): 1.61 µM
- TGI (SK-MEL-28 melanoma): 3.1 µM
- GI50 (NCI-H522 lung): 1.91 µM
- TGI (NCI-H522 lung): 3.71 µM
- GI50 (HOP-92 NSCLC): 1.49 µM
- TGI (HOP-92 NSCLC): 2.96 µM
- GI50 (NCI-H460 lung): 1.76 µM
- TGI (NCI-H460 lung): 3.4 µM
- GI50 (HL-60(TB) leukemia): 1.55 µM
- TGI (HL-60(TB) leukemia): 3.47 µM
- GI50 (HCT-15 colon): 1.26 µM
- TGI (HCT-15 colon): 2.64 µM
- GI50 (UACC-62 melanoma): 1.6 µM
- TGI (UACC-62 melanoma): 3.06 µM
- GI50 (CCRF-CEM leukemia): 1.88 µM
- TGI (CCRF-CEM leukemia): 4.48 µM
- GI50 (HS 578T breast): 2.08 µM
- TGI (HS 578T breast): 5.08 µM
- GI50 (NCI/ADR-RES ovarian): 1.7 µM
- TGI (NCI/ADR-RES ovarian): 3.66 µM
- GI50 (SF-539 CNS): 1.58 µM
- TGI (SF-539 CNS): 3.03 µM
- GI50 (DU-145 prostate): 1.78 µM
- TGI (DU-145 prostate): 3.61 µM
- GI50 (LOX IMVI melanoma): 1.62 µM
- TGI (LOX IMVI melanoma): 3.05 µM
- GI50 (OVCAR-8 ovarian): 2.07 µM
- TGI (OVCAR-8 ovarian): 3.88 µM
- GI50 (U251 CNS): 1.7 µM
- TGI (U251 CNS): 3.14 µM
- GI50 (HCC-2998 colon): 1.64 µM
- TGI (HCC-2998 colon): 3.2 µM
- GI50 (PC-3 prostate): 1.29 µM
- TGI (PC-3 prostate): 2.67 µM
- GI50 (SF-268 CNS): 2.77 µM
- TGI (SF-268 CNS): 9.21 µM
- GI50 (NCI-H23 lung): 1.78 µM
- TGI (NCI-H23 lung): 3.89 µM
- GI50 (OVCAR-5 ovarian): 2.25 µM
- TGI (OVCAR-5 ovarian): 6.4 µM
- GI50 (UO-31 renal): 1.38 µM
- TGI (UO-31 renal): 2.72 µM
- GI50 (MCF7 breast): 1.5 µM
- TGI (MCF7 breast): 3.23 µM
- GI50 (A498 renal): 10.4 µM
- TGI (A498 renal): 29.8 µM
- GI50 (SK-OV-3 ovarian): 3.72 µM
- TGI (SK-OV-3 ovarian): 16.2 µM
- GI50 (T-47D breast): 1.53 µM
- TGI (T-47D breast): 3.54 µM
- GI50 (MDA-MB-231 breast): 1.78 µM
- TGI (MDA-MB-231 breast): 3.3 µM
- GI50 (TK-10 renal): 2.58 µM
- TGI (TK-10 renal): 6.82 µM
- GI50 (COLO 205 colon): 1.52 µM
- TGI (COLO 205 colon): 3.25 µM
- GI50 (HCT-116 colon): 1.03 µM
- TGI (HCT-116 colon): 2.25 µM
- GI50 (HOP-62 NSCLC): 1.75 µM
- TGI (HOP-62 NSCLC): 3.31 µM
- GI50 (786-0 renal): 1.45 µM
- TGI (786-0 renal): 2.96 µM
- GI50 (SNB-19 CNS): 2.54 µM
- TGI (SNB-19 CNS): 6.12 µM
- GI50 (M14 melanoma): 1.6 µM
- TGI (M14 melanoma): 3.1 µM
- GI50 (UACC-257 melanoma): 2.02 µM
- TGI (UACC-257 melanoma): 4.09 µM
- GI50 (IGROV1 ovarian): 1.58 µM
- TGI (IGROV1 ovarian): 3.27 µM
- GI50 (OVCAR-3 ovarian): 1.67 µM
- TGI (OVCAR-3 ovarian): 3.14 µM
- GI50 (NCI-H226 lung): 2.23 µM
- TGI (NCI-H226 lung): 4.8 µM
- GI50 (SNB-75 CNS): 2.48 µM
- TGI (SNB-75 CNS): 10.1 µM

SMILES: C=CCCCCCCCCC(=O)ON(Cc1ccc(O)c(OC)c1)C(=O)C(F)(F)F
- TGI (KM12 colon): > 100 µM
- TGI (A549 NSCLC): > 100 µM
- TGI (SK-MEL-5 melanoma): > 100 µM
- TGI (EKVX NSCLC): > 100 µM
- TGI (SN12C renal): > 100 µM
- TGI (SF-295 CNS): > 100 µM
- TGI (MALME-3M melanoma): > 100 µM
- TGI (RXF 393 renal): > 100 µM
- TGI (HT29 colon): > 100 µM
- TGI (SW-620 colon): > 100 µM
- TGI (SK-MEL-28 melanoma): > 100 µM
- TGI (HOP-92 NSCLC): > 100 µM
- TGI (NCI-H460 lung): > 100 µM
- TGI (HL-60(TB) leukemia): > 100 µM
- TGI (HCT-15 colon): > 100 µM
- TGI (MDA-MB-435): > 100 µM
- TGI (OVCAR-4 ovarian): > 100 µM
- TGI (UACC-62 melanoma): > 100 µM
- TGI (CCRF-CEM leukemia): > 100 µM
- TGI (HS 578T breast): > 100 µM
- TGI (K-562 leukemia): > 100 µM
- TGI (NCI/ADR-RES ovarian): > 100 µM
- TGI (SF-539 CNS): > 100 µM
- TGI (DU-145 prostate): > 100 µM
- TGI (LOX IMVI melanoma): > 100 µM
- TGI (OVCAR-8 ovarian): > 100 µM
- TGI (U251 CNS): > 100 µM
- TGI (HCC-2998 colon): > 100 µM
- TGI (SF-268 CNS): > 100 µM
- TGI (NCI-H23 lung): > 100 µM
- TGI (OVCAR-5 ovarian): > 100 µM
- TGI (UO-31 renal): 68 µM
- TGI (MCF7 breast): > 100 µM
- TGI (A498 renal): > 100 µM
- TGI (SK-OV-3 ovarian): > 100 µM
- TGI (T-47D breast): > 100 µM
- TGI (MDA-MB-231 breast): > 100 µM
- TGI (TK-10 renal): > 100 µM
- TGI (COLO 205 colon): > 100 µM
- TGI (HCT-116 colon): > 100 µM
- TGI (HOP-62 NSCLC): > 100 µM
- TGI (RPMI-8226 leukemia): > 100 µM
- TGI (786-0 renal): > 100 µM
- TGI (SNB-19 CNS): > 100 µM
- TGI (M14 melanoma): > 100 µM
- TGI (ACHN renal): > 100 µM
- TGI (MOLT-4 leukemia): > 100 µM
- TGI (SR leukemia): > 100 µM
- TGI (UACC-257 melanoma): > 100 µM
- TGI (IGROV1 ovarian): > 100 µM
- TGI (NCI-H226 lung): > 100 µM
- TGI (SNB-75 CNS): > 100 µM

SMILES: CC(C)(Oc1ccc(/C=C/C(=O)c2ccccc2)cc1)C(=O)Nc1c(Cl)cccc1Cl
- TGI (NCI-H522 lung): 9.86 µM
- TGI (HL-60(TB) leukemia): 23.6 µM
- TGI (CCRF-CEM leukemia): > 31.6 µM
- TGI (K-562 leukemia): > 100 µM

SMILES: OC(c1cc(-c2ccc(Cl)cc2)nc2c(Cl)cccc12)C1CCCCN1 (configuration not stated)
- GI50 (KM12 colon): 1.85 µM
- TGI (KM12 colon): 3.36 µM
- GI50 (SN12C renal): 1.6 µM
- TGI (SN12C renal): 3.27 µM
- GI50 (SF-295 CNS): 1.68 µM
- TGI (SF-295 CNS): 3.28 µM
- GI50 (SK-MEL-28 melanoma): 1.76 µM
- TGI (SK-MEL-28 melanoma): 3.23 µM
- GI50 (HOP-92 NSCLC): 1.02 µM
- TGI (HOP-92 NSCLC): 2.36 µM
- GI50 (NCI-H460 lung): 1.64 µM
- TGI (NCI-H460 lung): 3.15 µM
- GI50 (UACC-62 melanoma): 1.69 µM
- TGI (UACC-62 melanoma): 3.17 µM
- GI50 (SF-539 CNS): 1.7 µM
- TGI (SF-539 CNS): 3.15 µM
- GI50 (DU-145 prostate): 1.71 µM
- TGI (DU-145 prostate): 3.1 µM
- GI50 (OVCAR-8 ovarian): 2.11 µM
- TGI (OVCAR-8 ovarian): 4.63 µM
- GI50 (PC-3 prostate): 1.46 µM
- TGI (PC-3 prostate): 2.91 µM
- GI50 (SF-268 CNS): 1.78 µM
- TGI (SF-268 CNS): 3.4 µM
- GI50 (OVCAR-5 ovarian): 1.66 µM
- TGI (OVCAR-5 ovarian): 3.26 µM
- GI50 (SK-OV-3 ovarian): 1.76 µM
- TGI (SK-OV-3 ovarian): 3.21 µM
- GI50 (MDA-MB-231 breast): 1.49 µM
- TGI (MDA-MB-231 breast): 3.02 µM
- GI50 (COLO 205 colon): 1.7 µM
- TGI (COLO 205 colon): 3.17 µM
- GI50 (ACHN renal): 1.53 µM
- TGI (ACHN renal): 2.88 µM
- GI50 (CAKI-1 renal): 1.16 µM
- TGI (CAKI-1 renal): 2.52 µM
- GI50 (OVCAR-3 ovarian): 1.81 µM
- TGI (OVCAR-3 ovarian): 3.35 µM
- GI50 (SNB-75 CNS): 1.28 µM
- TGI (SNB-75 CNS): 2.68 µM

— PubChem BioAssay (NCI)
